{"source": "patent US12144856B2", "about": "(priority 2019, dated 2024)", "key": {"influenza infection [1]": {"system": "influenza infection", "experiment": "Post-infection antibody, hemagglutination and microneutralization titers of mice vaccinated with or without miltefosine (FIG. 3)", "format": "in vivo", "conditions": "intraperitoneal miltefosine + vaccine vs vaccine only", "description": "Circles indicate data from the miltefosine+vaccine treatment group; squares indicate data from the vaccine only treatment group; triangles indicate data from the miltefosine only treatment group; inverted triangles indicate data from a saline-treated control group.\nIn FIG. 3 circles indicate data from the miltefosine+vaccine treatment group, squares indicate data from the vaccine only treatment group, triangles indicate data from the miltefosine only treatment group, and inverted triangles indicate data from a saline-treated control group."}, "[2]": {"system": "split-virion seasonal influenza vaccine", "experiment": "Antibody titers after influenza vaccination with or without intraperitoneal miltefosine (FIG. 1)", "format": "in vivo, mice", "description": "FIG. 1: FIG. 1 depicts antibody titers measured 14 days after vaccination with or without miltefosine. A second dose of vaccine was provided on day 14. Circles indicate data from the miltefosine+vaccine treatment group; squares indicate data from the vaccine only treatment group; triangles indicate data from the miltefosine only treatment group; inverted triangles indicate data from a saline-treated control group.\nMiltefosine is an FDA-approved anti-parasitic drug that is used in the treatment of Leishmaniasis. The immunomodulating effects of miltefosine include being an agonist of TLR4 and TLR9 (Das S, Rani M, Pandey K, Sahoo G C, Rabidas V N, Singh D, et al. Combination of paromomycin and miltefosine promotes TLR4-dependent induction of antileishmanial immune response in vitro. J Antimicrob Chemother 2012; 67:2373-8; Mukherjee A K, Gupta G, Adhikari A, Majumder S, Kar Mahapatra S, Bhattacharyya Majumdar S, et al. Miltefosine triggers a strong proinflammatory cytokine response during visceral leishmaniasis: role of TLR4 and TLR9. Int Immunopharmacol 2012; 12:565-72), enhancing IFN-γ receptor (Wadhone P, Maiti M, Agarwal R, Kamat V, Martin S, Saha B. Miltefosine promotes IFN-gamma-dominated anti-leishmanial immune response. J Immunol 2009; 182:7146-54), promoting IL12-dependent TH1 response (Wadhone P, Maiti M, Agarwal R, Kamat V, Martin S, Saha B. Miltefosine promotes IFN-gamma-dominated anti-leishmanial immune response. J Immunol 2009; 182:7146-54), and inhibiting PI3K-Akt pathway (Lucas A, Kim Y, Rivera-Pabon O, Chae S, Kim D H, Kim B. Targeting the PI3K/Akt cell survival pathway to induce cell death of HIV-1 infected macrophages with alkylphospholipid compounds. PLoS One 2010; 5). Topical formulation of miltefosine has been evaluated in the treatment of breast carcinoma (Clive S, Gardiner J, Leonard R C. Miltefosine as a topical treatment for cutaneous metastases in breast carcinoma. Cancer Chemother Pharmacol 1999; 44 Suppl:S29-30). […] It was also noted that both IgG1 and IgG2a responses were enhanced by the use of miltefosine in combination with intradermal vaccination."}, "influenza infection [3]": {"system": "influenza infection", "experiment": "Survival of mice infected 3 or 7 days after a single influenza vaccination with or without miltefosine (FIGS. 2A, 2B)", "format": "in vivo", "conditions": "intraperitoneal miltefosine adjuvant + vaccine vs vaccine without adjuvant; infected 3 or 7 days after vaccination", "procedure": "FIGS. 2A and 2B: FIG. 2A depicts survival rates of infected mice that were vaccinated with or without miltefosine 3 days prior to infection. Data from treatment with 0.2 mg miltefosine+vaccine is represented by a combination a circle and a solid line. Data from treatment with 0.008 mg miltefosine+vaccine is represented by a combination of a rhombus and a dashed line. Data from treatment with 0.2 mg miltefosine only is represented by a dash/dot line. Data from treatment with vaccine only is represented by a combination of a square and a solid line. Data from treatment with a saline control is represented by a dotted line. FIG. 2B depicts survival rates of infected mice that were vaccinated with (circle/dashed line, rhombus/dashed line, or black) or without (square/solid line) miltefosine 7 days prior to infection. Data from treatment with 1 mg miltefosine+vaccine is represented by a combination a triangle and a solid line. Data from treatment with 0.2 mg miltefosine+vaccine is represented by a combination a circle and a solid line. Data from treatment with 0.008 mg miltefosine+vaccine is represented by a combination of a rhombus and a dashed line. Data from treatment with 0.2 mg miltefosine only is represented by a dash/dot line. Data from treatment with vaccine only is represented by a combination of a square and a solid line. […]"}, "influenza vaccine [4]": {"system": "influenza vaccine", "conditions": "older adults, cited from earlier work"}, "influenza vaccine [5]": {"system": "influenza vaccine", "conditions": "young adults; topical imiquimod vs sham aqueous cream; cited from earlier work"}, "[6]": {"system": "2009 pandemic influenza A(H1N1) virus and avian influenza virus A(H7N9)", "conditions": "cited from earlier work"}, "[7]": {"conditions": "miltefosine + vaccine vs vaccine only, 14 days after vaccination"}}, "data": [{"smiles": "CCCCCCCCCCCCCCCCOP(=O)([O-])OCC[N+](C)(C)C", "note": "[miltefosine]", "values": [{"measurement": "IgG1/IgG2 ratio", "setting": "influenza infection [1]", "value": "greater"}, {"measurement": "HAI titer", "setting": "influenza infection [1]; 4 days post-infection", "value": "significantly higher"}, {"measurement": "MN titer", "setting": "influenza infection [1]; 4 days post-infection", "value": "significantly higher"}, {"measurement": "Hemagglutination titer", "setting": "[2]; [7]", "value": "improved"}, {"measurement": "Microneutralization titer", "setting": "[2]; [7]", "value": "improved"}, {"measurement": "IgG titer", "setting": "[2]; miltefosine in combination with influenza vaccination vs vaccine only, two weeks post-immunization", "value": "significantly increased"}, {"measurement": "IgG1 and IgG2a responses", "setting": "[2]; miltefosine in combination with vaccination", "value": "enhanced"}, {"measurement": "Survival", "setting": "influenza infection [3]", "value": "significantly improved"}]}, {"smiles": "CCCCC/C=C\\C/C=C\\C/C=C\\C/C=C\\CCCC(=O)N[C@H](C)CO", "note": "[(R)-methanandamide]", "values": [{"measurement": "CC50", "setting": "in vitro", "value": "> 60", "unit": "µM"}]}, {"smiles": "CC(C)Cn1cnc2c(N)nc3ccccc3c21", "note": "[imiquimod]", "values": [{"measurement": "Antibody response", "setting": "influenza vaccine [4]; topical imiquimod vs sham aqueous cream before intradermal vaccine", "value": "more rapid and robust"}, {"measurement": "Rate of hospitalization and pneumonia", "setting": "influenza vaccine [4]; topical imiquimod vs sham aqueous cream", "value": "significantly lower"}, {"measurement": "Antibody responses for homologous virus", "setting": "influenza vaccine [5]", "value": "faster and more robust"}, {"measurement": "Death during lethal challenge", "setting": "[6]; 2009 pandemic A(H1N1) and A(H7N9) lethal challenge", "value": "reduction"}, {"measurement": "Immunogenicity of the influenza vaccine", "setting": "[6]; mouse model", "value": "accelerate and augment"}]}]}
